Laboratory results taken from patent US10662138B2, “Herbicidal propynyl-phenyl compounds” (Syngenta Participations AG, priority 2014, dated 2020).

Experiments:
Type in all cases: in vivo
Abutilon theophrasti = assay: Glasshouse assay for herbicidal activity, post-emergence, ABUTH; conditions: visual 13 days after application, 100%=total damage; for pest or weed control at 30 g/ha / pest or weed control at 250 g/ha: Abutilon theophrasti, 312 h, read-out: Percentage phytotoxicity ABUTH
Experimental: (§1) Seeds of a variety of test plant species were sown in standard soil ** in pots. After cultivation for one day (pre-emergence) or after 8 days cultivation (post-emergence) under controlled conditions in a glasshouse (at 24/16° C., day/night; 14 hours light; 65% humidity), the plants were sprayed with an aqueous spray solution derived from the formulation of the technical active ingredient (the test herbicide) in acetone/water (50:50) solution containing 0.5% Tween 20 (polyoxyethylene sorbitan monolaurate, CAS Reg. No. 9005-64-5). The test plants were then grown on under controlled conditions in a glasshouse (at 24/16° C., day/night; 14 hours light; 65% humidity) and watered twice daily. 13 Days after application of the test herbicide, for pre- and post-emergence, the test was evaluated visually for percentage phytotoxicity to each plant (where 100%=total damage to plant; 0%=no damage to plant). Generally, each test herbicide is only tested on 1 plant per plant species for each application rate tested and for each application timing. The “standard soil” in Biological Example 1 is usually a “sand” or “sandy loam” type of soil. Biological Example 1—Post-Emergence Application—Herbicidal Activity Results (Percentage Phytotoxicity) Dicotyledonous weeds: ABUTH=Abutilon theophrasti; AMARE=Amaranthus retroflexus. Grassy monocotyledonous weeds: SETFA=Setaria faberi; ALOMY=Alopecurus myosuroides; ECHCG=Echinochloa crus-galli; ZEAMX=Zea mays (corn, maize, e.g. volunteer corn).

Amaranthus retroflexus = assay: Glasshouse assay for herbicidal activity, post-emergence, AMARE; conditions: visual 13 days after application, 100%=total damage; for pest or weed control at 30 g/ha / pest or weed control at 250 g/ha: Amaranthus retroflexus, 312 h, read-out: Percentage phytotoxicity AMARE
Experimental: as §1

Setaria faberi = assay: Glasshouse assay for herbicidal activity, post-emergence, SETFA; conditions: visual 13 days after application, 100%=total damage; for pest or weed control at 30 g/ha / pest or weed control at 250 g/ha: Setaria faberi, 312 h, read-out: Percentage phytotoxicity SETFA
Experimental: as §1

Alopecurus myosuroides = assay: Glasshouse assay for herbicidal activity, post-emergence, ALOMY; conditions: visual 13 days after application, 100%=total damage; for pest or weed control at 30 g/ha / pest or weed control at 250 g/ha: Alopecurus myosuroides, 312 h, read-out: Percentage phytotoxicity ALOMY
Experimental: as §1

Echinochloa crus-galli = assay: Glasshouse assay for herbicidal activity, post-emergence, ECHCG; conditions: visual 13 days after application, 100%=total damage; for pest or weed control at 30 g/ha / pest or weed control at 250 g/ha: Echinochloa crus-galli, 312 h, read-out: Percentage phytotoxicity ECHCG
Experimental: as §1

[1] = test system: Zea mays (corn, maize, e.g. volunteer corn); assay: Glasshouse assay for herbicidal activity, post-emergence, ZEAMX; conditions: visual 13 days after application, 100%=total damage; for pest or weed control at 30 g/ha / pest or weed control at 250 g/ha: Zea mays, 312 h, read-out: Percentage phytotoxicity ZEAMX
Experimental: as §1

Compound	Percentage phytotoxicity ABUTH (Abutilon theophrasti; 250 g/ha) [%]	Percentage phytotoxicity AMARE (Amaranthus retroflexus; 250 g/ha) [%]	Percentage phytotoxicity SETFA (Setaria faberi; 250 g/ha) [%]	Percentage phytotoxicity ALOMY (Alopecurus myosuroides; 250 g/ha) [%]	Percentage phytotoxicity ECHCG (Echinochloa crus-galli; 250 g/ha) [%]	Percentage phytotoxicity ZEAMX ([1]; 250 g/ha) [%]	pest or weed control at 30 g/ha (Abutilon theophrasti) [%]	pest or weed control at 250 g/ha (Abutilon theophrasti; 250 g/ha) [%]	pest or weed control at 30 g/ha (Amaranthus retroflexus) [%]	pest or weed control at 250 g/ha (Amaranthus retroflexus; 250 g/ha) [%]	pest or weed control at 30 g/ha (Setaria faberi) [%]	pest or weed control at 250 g/ha (Setaria faberi; 250 g/ha) [%]	pest or weed control at 30 g/ha (Alopecurus myosuroides) [%]	pest or weed control at 250 g/ha (Alopecurus myosuroides; 250 g/ha) [%]	pest or weed control at 30 g/ha (Echinochloa crus-galli) [%]	pest or weed control at 250 g/ha (Echinochloa crus-galli; 250 g/ha) [%]	pest or weed control at 30 g/ha [1] [%]	pest or weed control at 250 g/ha ([1]; 250 g/ha) [%]
4-(2,6-Dimethoxy-4-prop-1-ynyl-phenyl)-2,2,6,6-tetramethyl-tetrahydropyran-3,5-dione [Compound A2]	10	0	90	90	70	70												
CC#Cc1ccc(C2C(=O)C3CCC(C3)C2=O)c(OC)c1 (centres unmarked) [Compound A1, 3-(2-methoxy-4-prop-1-ynyl-phenyl)bicyclo[3.2.1]octane-2,4-dione]							10	20	30	50	90	100	100	100	100	100	100	100
CC#Cc1cc(OC)c(C2C(=O)C3CCC(C3)C2=O)c(C(F)(F)F)c1 (centres unmarked) [Compound A3, 3-[2-methoxy-4-prop-1-ynyl-6-(trifluoromethyl)phenyl]bicyclo[3.2.1]octane-2,4-dione]							0	0	0	0	70	90	40	70	70	100	90	90
CC#Cc1ccc(C2C(=O)C3CCC(C3)C2=O)c(OCC(F)(F)F)c1 (centres unmarked) [Compound A4]							0	0	0	0	40	70	10	30	20	40	30	60
CC#Cc1ccc(C2C(=O)C3CCC(C3)C2=O)c(OC(F)F)c1 (centres unmarked) [Compound A5]							0	0	0	0	60	90	50	80	90	100	100	100
CC#Cc1ccc(C2C(=O)C3CCC(C3)C2=O)c(OCCC)c1 (centres unmarked) [Compound A6]							0	0	0	0	10	50			40	70	40	80
CC#Cc1cc(OC)c(C2C(=O)C3CCC(C3)C2=O)c(OC)c1 (centres unmarked) [Compound A7]							0	10	0	0	100	100	90	100	100	100	100	100
CC#Cc1ccc(C2C(=O)C3CCC(C3)C2=O)c(OC(F)(F)F)c1 (centres unmarked) [Compound A8]								80		10		100		100		100		100
CC#Cc1ccc(C2C(=O)CC(CCSC)CC2=O)c(OC)c1 (centres unmarked) [Compound A9]							20	40	0	20	80	90	30	90	80	90	90	100
CC#Cc1ccc(C2C(=O)CCCC2=O)c(OC)c1 [Compound A10]							0	10	10	20	60	70	0	70	20	30	90	90
CC#Cc1cc(OC)c(C2C(=O)CCCC2=O)c(OC)c1 [Compound A11, 2-(2,6-dimethoxy-4-prop-1-ynyl-phenyl)cyclohexane-1,3-dione]							0	0	10	30	100	100	70	90	100	100	100	100
CC#Cc1ccc(C2C(=O)CC3(CCOCC3)CC2=O)c(OC)c1 [Compound A12]							0	20	0	30	100	100	90	100	100	100	100	100
CC#Cc1ccc(C2C(=O)C3CCC(C3)C2=O)c(OCC)c1 (centres unmarked) [Compound A14]							0	0	0	0	50	90			70	100	70	90
CC#Cc1ccc(C2C(=O)C3CCC(C3)C2=O)c(OCCOC)c1 (centres unmarked) [Compound A15, 3-[2-(2-methoxyethoxy)-4-prop-1-ynyl-phenyl]bicyclo[3.2.1]octane-2,4-dione]							0	0	0	0	50	80	10	20	10	40	40	80
CC#Cc1ccc(C2C(=O)C3CCC(C3)C2=O)c(CCC)c1 (centres unmarked) [Compound A16, 3-(2-propyl-4-prop-1-ynyl-phenyl)bicyclo[3.2.1]octane-2,4-dione]								0		0		100		100		100		100
CC#Cc1ccc(C2C(=O)C3CCC(C3)C2=O)c(CC)c1 (centres unmarked) [Compound A17]								50		0		90		100		100		100
